Experimental data published in patent US8722849B2, “Polypeptides” (Novo Nordisk A/S, priority 2011, dated 2014).
In brackets after ≈: the same amount, converted by molar mass. Read-outs that look alike come from different tables or passages of the source. Starred links: 1 amine or outer side, 2 acyl side, 3 side chain; linkers in the order of their positions; H or OH if unused. Positions of bridges follow the written chain, without caps; N, C: chain ends. Residues, ends and D or L forms follow the SMILES beside them. *: point of attachment. C20 diacid = O=C(O)CCCCCCCCCCCCCCCCCCC(=O)*; γGlu = O=C(O)[C@H](CCC(=O)[*:2])N[*:1]

Tests used:
[1] = target: T1, human amylin receptor (amylin 3(a) receptor: human calcitonin receptor + RAMP-3) (Homo sapiens, UniProt O60896+P30988); test: Assay (II)a functional CRE-luciferase assay, human amylin receptor; type: cell-based
T1 construct: expressed in transfected cells; host or cells: BHK570
T1 sequence (P30988 25-474): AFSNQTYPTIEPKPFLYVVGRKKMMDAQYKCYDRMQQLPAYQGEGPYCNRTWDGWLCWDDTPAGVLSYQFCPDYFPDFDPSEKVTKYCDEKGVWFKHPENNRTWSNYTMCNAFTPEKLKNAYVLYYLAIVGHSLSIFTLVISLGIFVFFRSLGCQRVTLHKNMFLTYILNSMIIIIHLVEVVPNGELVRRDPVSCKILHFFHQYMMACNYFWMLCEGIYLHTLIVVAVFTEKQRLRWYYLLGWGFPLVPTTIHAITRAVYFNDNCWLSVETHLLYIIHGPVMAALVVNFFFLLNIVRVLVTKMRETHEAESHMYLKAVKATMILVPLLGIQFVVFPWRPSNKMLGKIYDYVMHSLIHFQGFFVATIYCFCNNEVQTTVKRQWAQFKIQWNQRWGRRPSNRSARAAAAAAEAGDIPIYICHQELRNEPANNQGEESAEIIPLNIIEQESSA
T1 sequence (O60896 24-148 partner): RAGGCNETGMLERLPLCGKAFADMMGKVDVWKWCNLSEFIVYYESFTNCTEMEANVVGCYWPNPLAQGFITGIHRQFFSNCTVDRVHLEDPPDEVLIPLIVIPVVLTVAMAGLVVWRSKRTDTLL

[2] = target: T2, human calcitonin receptor (Homo sapiens, UniProt P30988); test: Assay (II)a functional CRE-luciferase assay, human calcitonin receptor; type: cell-based
T2 construct: expressed in transfected cells; host or cells: BHK570
T2 sequence (P30988 25-474): T1 sequence (P30988 25-474)

[3] = Assay (IV) determination of solubility; type: physicochemical
In short: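 Stock ~500 nmol/ml in water; 1:1 with 100 mM buffer, pH 3.0–8.0 (glycylglycine ≤5.0, bistrispropane ≥6.0); 18 h RT; spin; HPLC quantitation of soluble polypeptide.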

[4] = Assay (III) ThT fibrillation assay for physical stability; type: physicochemical; settings: ThT fibrillation assay
In short: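 Freshly prepared formulations, pH-adjusted, with 1 μM ThT; four or eight replicates incubated at 37 °C under 960 rpm orbital shaking. Fluorescence (ex 444/em 485 nm) read every 20 min; […]. Peptide concentration measured by RP-HPLC before and after the run.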

[5] = Table 11, read-out: CTa receptor human EC50
[6] = bistrispropane buffer, pH 6, pH 6.0, read-out: Solubility pH 6.0
[7] = bistrispropane buffer, pH 6.5, pH 6.5, read-out: Solubility pH 6.5
[8] = bistrispropane buffer, pH 7, pH 7.0, read-out: Solubility pH 7.0
[9] = bistrispropane buffer, pH 7.5, pH 7.5, read-out: Solubility pH 7.5
[10] = glycylglycine buffer, pH 3, pH 3.0, read-out: Solubility pH 3.0
[11] = glycylglycine buffer, pH 4, pH 4.0, read-out: Solubility pH 4.0
[12] = glycylglycine buffer, pH 5, pH 5.0, read-out: Solubility pH 5.0
[13] = pH 8.0, read-out: Solubility pH 8.0
[14] = Table 2, BHK amylin 3(a)-receptor/CRE-luc cells
[15] = Table 7, human calcitonin (CTa) receptor
[16] = bistrispropane buffer, pH 8, pH 8.0, read-out: Solubility pH 8.0
[17] = glycylglycine buffer, pH 4, pH 4.0, 18 hours at room temperature, Table 2, read-out: Solubility pH 4.0

Row | EC50 ([1]; Table 11) [nM] | EC50 [2, 5] [nM] | solubility at 18 h [3, 6] [µM] | solubility at 18 h [3, 7] [µM] | solubility at 18 h [3, 8] [µM] | solubility at 18 h [3, 9] [µM] | solubility at 18 h [3, 10] [µM] | solubility at 18 h [3, 11] [µM] | solubility at 18 h [3, 12] [µM] | solubility at 18 h [3, 13] [µM] | ThT pH 4.0 lag time (h) [4] [h] | EC50 [1, 14] [nM] | EC50 [2, 15] [nM] | solubility at 18 h [3, 16] [µM] | solubility at 18 h [3, 17] [µM] | ThT pH 4.0 lag time [4] [h] | solubility at 18 h ([3]; bistrispropane buffer, pH 7, pH 7.0, 18 hours at room temperature, Table 3, read-out: Solubility pH 7.0) [µM] | Structure (SMILES)
1 | 0.0745 | 0.193 | 85 (≈ 379 µg/mL) | 1 (≈ 4.45 µg/mL) | 1 (≈ 4.45 µg/mL) | 1 (≈ 4.45 µg/mL) | > 200 | > 200 | > 200 | 1 (≈ 4.45 µg/mL) | 2.6 | – | – | – | – | – | – | CC[C@H](C)[C@H](NC(=O)[C@@H]1CCCN1C(=O)CNC(=O)[C@H](Cc1ccccc1)NC(=O)[C@H](CC(N)=O)NC(=O)[C@H](CC(N)=O)NC(=O)[C@H](CO)NC(=O)[C@H](CO)NC(=O)[C@H](Cc1c[nH]cn1)NC(=O)[C@@H](NC(=O)[C@H](CC(C)C)NC(=O)[C@H](Cc1ccccc1)NC(=O)[C@H](CC(N)=O)NC(=O)[C@H](C)NC(=O)[C@H](CC(C)C)NC(=O)[C@H](CCCNC(=N)N)NC(=O)[C@H](CCC(N)=O)NC(=O)[C@@H](NC(=O)[C@H](C)NC(=O)[C@@H]1CSSC[C@H](NC(=O)[C@H](CCCNC(=N)N)NC(=O)CC[C@H](NC(=O)CCCCCCCCCCCCCCCCCCC(=O)O)C(=O)O)C(=O)N[C@@H](CC(N)=O)C(=O)N[C@@H]([C@@H](C)O)C(=O)N[C@@H](C)C(=O)N[C@@H]([C@@H](C)O)C(=O)N1)[C@@H](C)O)C(C)C)C(=O)N[C@@H](CC(C)C)C(=O)N1CCC[C@H]1C(=O)N1CCC[C@H]1C(=O)N[C@H](C(=O)N[C@@H](CC(N)=O)C(=O)N[C@H](C(=O)NCC(=O)N[C@@H](CO)C(=O)N[C@@H](Cc1c[nH]cn1)C(=O)N[C@H](C(=O)N[C@@H](Cc1ccc(O)cc1)C(N)=O)[C@@H](C)O)C(C)C)[C@@H](C)O [Example 98] ({C20 diacid-γGlu}-RCNTATCATQRLANFLVHSSNNFGPILPPTNVGSHTY-NH2; disulfide 2-7 (inferred); C-terminus assumed)
2 | 0.045 | 0.0875 | 2 (≈ 9.02 µg/mL) | 1 (≈ 4.51 µg/mL) | 1 (≈ 4.51 µg/mL) | 1 (≈ 4.51 µg/mL) | > 200 | > 200 | > 200 | 1 (≈ 4.51 µg/mL) | 1.7 | – | – | – | – | – | – | CC[C@H](C)[C@H](NC(=O)[C@@H]1CCCN1C(=O)CNC(=O)[C@H](Cc1ccccc1)NC(=O)[C@H](CC(N)=O)NC(=O)[C@H](CC(N)=O)NC(=O)[C@H](CO)NC(=O)[C@H](CO)NC(=O)[C@H](Cc1c[nH]cn1)NC(=O)[C@@H](NC(=O)[C@H](CC(C)C)NC(=O)[C@H](Cc1ccccc1)NC(=O)[C@H](CC(N)=O)NC(=O)[C@H](C)NC(=O)[C@H](CC(C)C)NC(=O)[C@H](CCCNC(=N)N)NC(=O)[C@H](CCC(N)=O)NC(=O)[C@@H](NC(=O)[C@H](C)NC(=O)[C@@H]1CSSC[C@H](NC(=O)[C@H](CCCNC(=N)N)NC(=O)CNC(=O)CC[C@H](NC(=O)CCCCCCCCCCCCCCCCCCC(=O)O)C(=O)O)C(=O)N[C@@H](CC(N)=O)C(=O)N[C@@H]([C@@H](C)O)C(=O)N[C@@H](C)C(=O)N[C@@H]([C@@H](C)O)C(=O)N1)[C@@H](C)O)C(C)C)C(=O)N[C@@H](CC(C)C)C(=O)N1CCC[C@H]1C(=O)N1CCC[C@H]1C(=O)N[C@H](C(=O)N[C@@H](CC(N)=O)C(=O)N[C@H](C(=O)NCC(=O)N[C@@H](CO)C(=O)N[C@@H](Cc1c[nH]cn1)C(=O)N[C@H](C(=O)N[C@@H](Cc1ccc(O)cc1)C(N)=O)[C@@H](C)O)C(C)C)[C@@H](C)O [Example 99, N-alpha-[(S)-4-Carboxy-4-(19-carboxynonadecanoylamino)butyryl]-Gly-[Arg1,His35]-pramlintide] ({C20 diacid-γGlu}-GRCNTATCATQRLANFLVHSSNNFGPILPPTNVGSHTY-NH2; disulfide 3-8 (inferred); C-terminus assumed)
3 | – | – | > 200 | 28 (≈ 128 µg/mL) | 9 (≈ 41.1 µg/mL) | 30 (≈ 137 µg/mL) | > 200 | > 200 | > 200 | – | 26 | 0.0675 | 0.0895 | 95 (≈ 434 µg/mL) | > 200 | 26 | – | CC[C@H](C)[C@H](NC(=O)[C@@H]1CCCN1C(=O)CNC(=O)[C@H](Cc1ccccc1)NC(=O)[C@H](CC(N)=O)NC(=O)[C@H](CC(N)=O)NC(=O)[C@H](CO)NC(=O)[C@H](CO)NC(=O)[C@H](Cc1c[nH]cn1)NC(=O)[C@H](Cc1c[nH]cn1)NC(=O)[C@H](CC(C)C)NC(=O)[C@H](Cc1ccccc1)NC(=O)[C@H](CCC(=O)O)NC(=O)[C@H](C)NC(=O)[C@H](CC(C)C)NC(=O)[C@H](CCCNC(=N)N)NC(=O)[C@H](CCC(N)=O)NC(=O)[C@@H](NC(=O)[C@H](C)NC(=O)[C@@H]1CSSC[C@H](NC(=O)[C@H](CCCNC(=N)N)NC(=O)CNC(=O)CC[C@H](NC(=O)CCCCCCCCCCCCCCCCCCC(=O)O)C(=O)O)C(=O)N[C@@H](CC(N)=O)C(=O)N[C@@H]([C@@H](C)O)C(=O)N[C@@H](C)C(=O)N[C@@H]([C@@H](C)O)C(=O)N1)[C@@H](C)O)C(=O)N[C@@H](CC(C)C)C(=O)N1CCC[C@H]1C(=O)N1CCC[C@H]1C(=O)N[C@H](C(=O)N[C@@H](CC(N)=O)C(=O)N[C@H](C(=O)NCC(=O)N[C@@H](CO)C(=O)N[C@@H](Cc1c[nH]cn1)C(=O)N[C@H](C(=O)N[C@@H](Cc1ccc(O)cc1)C(N)=O)[C@@H](C)O)C(C)C)[C@@H](C)O [Example 100, N-alpha-[(S)-4-Carboxy-4-(19-carboxynonadecanoylamino)butyryl]-Gly-[Arg1,Glu14,His17,His35]-pramlintide] ({C20 diacid-γGlu}-GRCNTATCATQRLAEFLHHSSNNFGPILPPTNVGSHTY-NH2; disulfide 3-8 (inferred))
4 | – | – | > 200 | 198 (≈ 879 µg/mL) | > 200 | > 200 | > 200 | > 200 | > 200 | – | 3.1 | 0.0495 | 0.0505 | > 200 | > 200 | – | > 200 | CC[C@H](C)[C@H](NC(=O)[C@@H]1CCCN1C(=O)CNC(=O)[C@H](Cc1ccccc1)NC(=O)[C@H](CC(N)=O)NC(=O)[C@H](CC(N)=O)NC(=O)[C@H](CO)NC(=O)[C@H](CO)NC(=O)[C@H](Cc1c[nH]cn1)NC(=O)[C@@H](NC(=O)[C@H](CC(C)C)NC(=O)[C@H](Cc1ccccc1)NC(=O)[C@H](CCC(=O)O)NC(=O)[C@H](C)NC(=O)[C@H](CC(C)C)NC(=O)[C@H](CCCNC(=N)N)NC(=O)[C@H](CCC(N)=O)NC(=O)[C@@H](NC(=O)[C@H](C)NC(=O)[C@@H]1CSSC[C@H](NC(=O)[C@H](CCCNC(=N)N)NC(=O)CNC(=O)CC[C@H](NC(=O)CCCCCCCCCCCCCCCCCCC(=O)O)C(=O)O)C(=O)N[C@@H](CC(N)=O)C(=O)N[C@@H]([C@@H](C)O)C(=O)N[C@@H](C)C(=O)N[C@@H]([C@@H](C)O)C(=O)N1)[C@@H](C)O)C(C)C)C(=O)N[C@@H](CC(C)C)C(=O)N1CCC[C@H]1C(=O)N1CCC[C@H]1C(=O)N[C@H](C(=O)N[C@@H](CC(N)=O)C(=O)N[C@H](C(=O)NCC(=O)N[C@@H](CO)C(=O)N[C@@H](CC(N)=O)C(=O)N[C@H](C(=O)N1CCC[C@H]1C(N)=O)[C@@H](C)O)C(C)C)[C@@H](C)O [Example 102, N-alpha-[(S)-4-Carboxy-4-(19-carboxynonadecanoylamino)butyryl]-Gly-[Arg1,Glu14,Pro37]-pramlintide] ({C20 diacid-γGlu}-GRCNTATCATQRLAEFLVHSSNNFGPILPPTNVGSNTP-NH2; disulfide 3-8 (inferred); C-terminus assumed)
